One series deals with IL-6. It counts as cell-based. The settings on record: 10 μM peptide, versus PBS control; for IL-6 induction: NCIH1792 (H1792) human lung cells.
Another series is described as follows: in vitro. As to conditions: human, Cytotoxic Concentration (CC50), Caco-2 cells.

The values that follow come from patent publication US12605423B2, “Peptide inhibitors targeting methyltransfer mechanism of SARS-CoV-2” (United Arab Emirates University, priority 2021, dated 2026).

Converted amounts (≈) assume the structure as drawn. “Also recorded” adds a separate entry of the source.

With “YGRKKRRQRRRGSG [TAT sequence, reference compound]”, the “IL-6 induction” value in the series with IL-6 is listed as “no increase in IL-6”.

On to `CC[C@H](C)[C@H](NC(=O)[C@H](Cc1c[nH]cn1)NC(=O)[C@H](CS)NC(=O)[C@H](CCCNC(=N)N)NC(=O)[C@H](CS)NC(=O)[C@H](Cc1ccc(O)cc1)NC(=O)[C@H](CC(C)C)NC(=O)[C@H](CS)NC(=O)[C@H](CS)NC(=O)[C@H](CO)NC(=O)[C@H](C)NC(=O)CNC(=O)CNC(=O)[C@H](Cc1ccccc1)NC(=O)CNC(=O)[C@H](CO)NC(=O)CNC(=O)[C@H](CCCNC(=N)N)NC(=O)[C@H](CCCNC(=N)N)NC(=O)[C@H](CCCNC(=N)N)NC(=O)[C@H](CCC(N)=O)NC(=O)[C@H](CCCNC(=N)N)NC(=O)[C@H](CCCNC(=N)N)NC(=O)[C@H](CCCCN)NC(=O)[C@H](CCCCN)NC(=O)[C@H](CCCNC(=N)N)NC(=O)CNC(=O)[C@H](Cc1ccc(O)cc1)NC(C)=O)C(=O)N[C@@H](CC(=O)O)C(=O)N[C@@H](Cc1c[nH]cn1)C(=O)N1CCC[C@H]1C(=O)N[C@@H](CC(N)=O)C(=O)N1CCC[C@H]1C(=O)N[C@@H](CCCCN)C(=O)NCC(=O)N[C@@H](Cc1ccccc1)C(=O)N[C@@H](CS)C(=O)N[C@@H](CC(=O)O)C(=O)N[C@@H](CC(C)C)C(=O)N[C@@H](CCCCN)C(=O)NCC(=O)N[C@@H](CCCCN)C(=O)N[C@@H](Cc1ccc(O)cc1)C(N)=O` [Peptide P1], for which the CC50 in “in vitro” was 11 µg/mL (≈ 2.19 µM). Further, the “stimulation of the intrinsic secretion of IL-6” value in the series with IL-6 (NCIH1792 (H1792) cells) was “more than 4 fold”. Besides, in the series with IL-6, the “IL-6 induction” value is given as “strongly increased IL-6 secretion; also recorded: profound induction of IL-6 secretion”.

The CC50 is the concentration that lowers cell viability or growth by half. Lower therefore signals greater toxicity to the cells.
